Reference: ChEMBL document CHEMBL1126751, “Studies on quinazolines. 5. 2,3-dihydroimidazo[1,2-c]quinazoline derivatives: a novel class of potent and selective alpha 1-adrenoceptor antagonists and antihypertensive agents” (J Med Chem, 1993)
The source made the active and inactive calls. The calls are words filed in the database; no cut-off is given here.

Tests used:
[1] = test system: Rattus norvegicus; assay: Blood pressure lowering activity in spontaneously hypertensive rats (SHR) after 6 hours of administration (iv) of dose of 4.0 mg/kg; Did not last more than 1/2 hr […]; format: functional, organism-based; parameters: dose 4 mg/kg
[2] = test system: Rattus norvegicus; assay: Blood pressure lowering activity in spontaneously hypertensive rats (SHR) after 1 hour of administration (iv) of dose of 4.0 mg/kg; Did not last more than 1/2 hr […]; format: functional, organism-based; parameters: dose 4 mg/kg
[3] = molecular target: T1, Adrenergic receptor alpha-1 (Rattus norvegicus, UniProt P15823+P23944+P43140); assay: Binding affinity against alpha-1 adrenergic receptor by measuring displacement of [3H]prazosin from rat brain cortex membranes (in vitro).; format: cell membranes, Membrane
T1 sequence (P15823 whole entry): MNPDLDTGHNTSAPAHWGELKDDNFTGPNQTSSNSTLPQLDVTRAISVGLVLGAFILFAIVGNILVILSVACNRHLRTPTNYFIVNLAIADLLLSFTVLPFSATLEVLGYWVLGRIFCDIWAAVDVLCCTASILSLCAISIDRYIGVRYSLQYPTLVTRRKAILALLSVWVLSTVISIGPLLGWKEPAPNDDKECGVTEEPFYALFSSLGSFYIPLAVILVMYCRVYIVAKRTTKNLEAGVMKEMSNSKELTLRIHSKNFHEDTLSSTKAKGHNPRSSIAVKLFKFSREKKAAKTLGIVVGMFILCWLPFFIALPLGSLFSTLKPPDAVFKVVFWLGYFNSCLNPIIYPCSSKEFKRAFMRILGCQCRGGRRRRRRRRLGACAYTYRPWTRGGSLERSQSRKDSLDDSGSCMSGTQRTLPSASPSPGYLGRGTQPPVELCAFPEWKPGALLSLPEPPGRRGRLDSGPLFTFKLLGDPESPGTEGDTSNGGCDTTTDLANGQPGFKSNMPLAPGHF
T1 sequence (P23944 whole entry): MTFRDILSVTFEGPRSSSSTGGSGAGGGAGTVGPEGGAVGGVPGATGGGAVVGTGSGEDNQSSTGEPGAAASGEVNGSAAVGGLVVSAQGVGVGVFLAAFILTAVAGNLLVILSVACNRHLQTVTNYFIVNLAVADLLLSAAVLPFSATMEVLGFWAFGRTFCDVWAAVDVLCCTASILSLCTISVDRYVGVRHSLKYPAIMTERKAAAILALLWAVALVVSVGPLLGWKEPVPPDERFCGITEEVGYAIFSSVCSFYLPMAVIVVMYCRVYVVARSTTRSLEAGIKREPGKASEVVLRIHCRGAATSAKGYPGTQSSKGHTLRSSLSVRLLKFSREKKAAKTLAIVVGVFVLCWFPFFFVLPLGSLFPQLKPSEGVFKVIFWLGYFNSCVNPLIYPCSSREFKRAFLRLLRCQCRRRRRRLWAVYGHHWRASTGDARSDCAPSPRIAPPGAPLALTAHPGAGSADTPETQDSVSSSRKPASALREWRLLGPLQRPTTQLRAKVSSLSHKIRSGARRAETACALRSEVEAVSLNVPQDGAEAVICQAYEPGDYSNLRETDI
T1 sequence (P43140 whole entry): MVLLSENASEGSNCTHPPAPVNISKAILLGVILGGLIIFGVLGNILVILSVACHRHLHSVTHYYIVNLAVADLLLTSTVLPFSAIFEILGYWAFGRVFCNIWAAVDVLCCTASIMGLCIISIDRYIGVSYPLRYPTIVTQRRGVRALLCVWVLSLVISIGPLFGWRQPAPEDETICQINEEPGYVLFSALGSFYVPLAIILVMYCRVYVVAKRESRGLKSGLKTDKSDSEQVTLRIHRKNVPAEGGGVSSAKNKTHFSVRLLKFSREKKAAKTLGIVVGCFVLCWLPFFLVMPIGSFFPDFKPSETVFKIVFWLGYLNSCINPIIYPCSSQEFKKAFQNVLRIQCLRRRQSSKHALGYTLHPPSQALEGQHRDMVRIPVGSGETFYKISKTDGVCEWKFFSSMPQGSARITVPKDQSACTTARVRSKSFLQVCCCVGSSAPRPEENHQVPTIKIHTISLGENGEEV

[4] = test system: Rattus norvegicus; assay: Blood pressure lowering activity in spontaneously hypertensive rats (SHR) after 1 hour of administration (iv) of dose of 0.5 mg/kg […]; format: functional
[5] = test system: Rattus norvegicus; assay: Blood pressure lowering activity in spontaneously hypertensive rats (SHR) after 6 hours of administration (iv) of dose of 0.5 mg/kg […]; format: functional
[6] = molecular target: T2, Adrenergic receptor alpha-2 (Rattus norvegicus, UniProt P22086+P19328+P22909); assay: Binding affinity against alpha-2 adrenergic receptor by measuring displacement of [3H]clonidine from rat brain cortex membranes (in vitro).; format: cell membranes, Membrane
T2 sequence (P22086 whole entry): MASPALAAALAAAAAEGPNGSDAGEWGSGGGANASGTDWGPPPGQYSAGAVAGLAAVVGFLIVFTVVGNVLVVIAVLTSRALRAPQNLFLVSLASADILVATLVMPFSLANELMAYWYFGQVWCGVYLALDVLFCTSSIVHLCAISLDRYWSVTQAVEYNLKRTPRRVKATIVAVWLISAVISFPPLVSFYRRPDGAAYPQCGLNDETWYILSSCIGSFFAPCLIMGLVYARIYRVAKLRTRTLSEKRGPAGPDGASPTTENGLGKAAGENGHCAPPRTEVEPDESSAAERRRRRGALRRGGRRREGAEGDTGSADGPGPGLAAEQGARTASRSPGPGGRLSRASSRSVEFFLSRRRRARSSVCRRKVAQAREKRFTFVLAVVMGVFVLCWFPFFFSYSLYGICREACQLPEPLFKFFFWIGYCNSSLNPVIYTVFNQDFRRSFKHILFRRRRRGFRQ
T2 sequence (P19328 whole entry): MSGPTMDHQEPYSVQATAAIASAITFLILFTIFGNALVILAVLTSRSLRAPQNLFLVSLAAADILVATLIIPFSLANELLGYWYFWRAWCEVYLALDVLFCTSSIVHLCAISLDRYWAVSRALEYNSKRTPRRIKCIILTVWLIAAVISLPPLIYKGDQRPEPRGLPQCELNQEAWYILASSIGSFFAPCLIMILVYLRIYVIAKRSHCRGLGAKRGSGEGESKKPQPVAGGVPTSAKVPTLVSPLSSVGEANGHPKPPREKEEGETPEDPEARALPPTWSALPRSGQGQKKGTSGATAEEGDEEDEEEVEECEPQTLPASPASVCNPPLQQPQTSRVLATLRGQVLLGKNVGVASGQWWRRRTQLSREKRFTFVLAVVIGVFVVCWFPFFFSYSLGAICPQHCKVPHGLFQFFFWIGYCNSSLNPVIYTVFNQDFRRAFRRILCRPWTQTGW
T2 sequence (P22909 whole entry): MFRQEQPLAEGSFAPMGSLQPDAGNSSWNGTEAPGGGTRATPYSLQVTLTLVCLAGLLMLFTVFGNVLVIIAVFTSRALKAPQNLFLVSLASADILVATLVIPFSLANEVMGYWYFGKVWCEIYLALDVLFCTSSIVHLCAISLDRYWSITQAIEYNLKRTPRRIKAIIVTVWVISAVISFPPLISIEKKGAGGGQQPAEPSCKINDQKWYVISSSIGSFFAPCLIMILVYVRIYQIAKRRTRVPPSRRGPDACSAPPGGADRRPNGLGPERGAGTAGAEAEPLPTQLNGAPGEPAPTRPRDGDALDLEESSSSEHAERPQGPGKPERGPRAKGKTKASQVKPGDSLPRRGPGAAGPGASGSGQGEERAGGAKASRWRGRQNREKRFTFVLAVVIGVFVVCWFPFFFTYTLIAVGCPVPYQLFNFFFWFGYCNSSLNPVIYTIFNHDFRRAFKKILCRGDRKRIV

[7] = test system: Rattus norvegicus; assay: Blood pressure lowering activity in spontaneously hypertensive rats (SHR) after 6 hours of administration (iv) of dose of 0.5 mg/kg; Did not last more than 1/2 hr […]; format: functional, organism-based; parameters: dose 0.5 mg/kg
[8] = test system: Rattus norvegicus; assay: Blood pressure lowering activity in spontaneously hypertensive rats (SHR) after 1 hour of administration (iv) of dose of 1.0 mg/kg; Did not last more than 1/2 hr […]; format: functional, organism-based; parameters: dose 1 mg/kg
[9] = test system: Rattus norvegicus; assay: Blood pressure lowering activity in spontaneously hypertensive rats (SHR) after 6 hours of administration (iv) of dose of 1.0 mg/kg; Did not last more than 1/2 hr […]; format: functional, organism-based; parameters: dose 1 mg/kg
[10] = test system: Rattus norvegicus; assay: Blood pressure lowering activity in spontaneously hypertensive rats (SHR) after 6 hours of administration (iv) of dose of 4.0 mg/kg […]; format: functional
[11] = test system: Rattus norvegicus; assay: Blood pressure lowering activity in spontaneously hypertensive rats (SHR) after 1 hour of administration (iv) of dose of 4.0 mg/kg […]; format: functional

Structure (SMILES) | MBP [1] | MBP [2] | Ki [3] [nM] | Ki [6] [nM] | other results
COc1cccc(N2CCN(CC3CN=C4c5ccccc5N(C)C(=O)N43)CC2)c1 (configuration not stated) | inactive | inactive | 19.4 | – | –
COc1ccccc1N1CCN(CC2CN3C(=O)N(C)c4ccccc4C3=N2)CC1 (configuration not stated) | – | – | 0.37 | 1740 | MBP [4]: -38.4 mmHg; MBP [5]: -28.4 mmHg
COc1ccccc1N1CCN(CC2CN=C3c4ccccc4N(C)C(=O)N32)CC1 (configuration not stated) | – | – | 0.36 | 1419 | MBP [4]: -32.5 mmHg; MBP [5]: -28.3 mmHg
COc1ccc(N2CCN(CC3CN=C4c5ccccc5NC(=O)N43)CC2)cc1 (configuration not stated) | inactive | inactive | > 50 | – | –
COC1=Nc2ccccc2C2=NCC(CN3CCN(c4ccccc4OC)CC3)N12 (configuration not stated) | – | – | 0.07 | 472 | MBP [4]: -17.2 mmHg; MBP [7]: inactive
COc1cccc(N2CCN(CC3CN=C4c5ccccc5N=C(SC)N43)CC2)c1 (configuration not stated) | – | – | 48.8 | 8356 | MBP [8]: inactive; MBP [9]: inactive
SC1=Nc2ccccc2C2=NC(CN3CCN(c4ccccc4)CC3)CN12 (configuration not stated) | – | – | 158 | – | MBP [10]: -22.5 mmHg; MBP [11]: -33.9 mmHg
O=C(c1ccc(F)cc1)C1CCN(CC2CN3C(=O)Nc4ccccc4C3=N2)CC1 (configuration not stated) | – | – | – | – | MBP [10]: -13.8 mmHg; MBP [11]: -30 mmHg
COC1=Nc2ccccc2C2=NCC(CN3CCN(c4ccccc4Cl)CC3)N12 (configuration not stated) | – | – | 0.11 | 116 | MBP [4]: -28.3 mmHg; MBP [7]: inactive
O=C1Nc2ccccc2C2=NC(CN3CCN(c4ccc(F)cc4)CC3)CN12 (configuration not stated) | – | inactive | 14.4 | 391 | –
O=C1Nc2ccccc2C2=NC(CN3CCC(Cc4ccccc4)CC3)CN12 (configuration not stated) | inactive | – | 35.8 | 5011 | MBP [11]: -30.6 mmHg
O=C1Nc2ccccc2C2=NC(CNC3CCN(Cc4ccccc4)CC3)CN12 (configuration not stated) | inactive | inactive | 586 | – | –
COc1cc2c(cc1OC)C1=NC(CN3CCN(c4ccccc4)CC3)CN1C(=O)N2 (configuration not stated) | – | – | 30 | 1694 | MBP [10]: -12.6 mmHg; MBP [11]: -38.2 mmHg
COc1ccc(N2CCN(CC3CN=C4c5ccccc5N=C(SC)N43)CC2)cc1 (configuration not stated) | – | – | > 100 | – | MBP [8]: inactive; MBP [9]: inactive
CSC1=Nc2ccccc2C2=NCC(CN3CCN(c4ccccc4)CC3)N12 (configuration not stated) | – | – | > 10 | – | MBP [8]: inactive; MBP [9]: inactive
CSC1=Nc2ccccc2C2=NCC(CN3CCN(c4ccccc4Cl)CC3)N12 (configuration not stated) | – | – | 0.34 | 223 | MBP [8]: inactive; MBP [9]: inactive
O=C1Nc2ccccc2C2=NCC(CN3CCN(c4ccccc4)CC3)N12 (configuration not stated) | – | – | 1.7 | 962 | –
COC1=Nc2ccccc2C2=NCC(CN3CCN(c4ccccc4)CC3)N12 (configuration not stated) | – | – | 1.35 | 952 | MBP [8]: inactive; MBP [9]: inactive
O=C1Nc2ccccc2C2=NCC(CN3CCN(c4ccccc4Cl)CC3)N12 (configuration not stated) | – | – | 0.58 | 387 | MBP [4]: -14.6 mmHg; MBP [5]: -15 mmHg
O=C1Nc2ccccc2C2=NC(CN3CCN(c4ccccn4)CC3)CN12 (configuration not stated) | inactive | inactive | 95.9 | – | –
CN1C(=O)N2CC(CN3CCN(c4ccccc4Cl)CC3)N=C2c2ccccc21 (configuration not stated) | – | – | 0.68 | 473 | MBP [4]: -27.5 mmHg; MBP [5]: -22.5 mmHg
O=C1Nc2ccccc2C2=NC(CN3CCC4(CCCCC4)CC3)CN12 (configuration not stated) | inactive | inactive | 251.2 | – | –
COc1cccc(N2CCN(CC3CN4C(=O)Nc5ccccc5C4=N3)CC2)c1 (configuration not stated) | – | – | – | – | MBP [10]: -8.5 mmHg; MBP [11]: -20.3 mmHg
COC1=Nc2ccccc2C2=NCC(CN3CCN(c4cccc(OC)c4)CC3)N12 (configuration not stated) | inactive | inactive | > 100 | – | –
COc1cccc(N2CCN(CC3CN=C4c5ccccc5NC(=O)N43)CC2)c1 (configuration not stated) | inactive | inactive | 5.76 | 302 | –
COC1=Nc2ccccc2C2=NCC(CN3CCN(c4ccc(OC)cc4)CC3)N12 (configuration not stated) | inactive | inactive | > 100 | – | –
